Target: Factor D (Homo sapiens (Human), UniProt P00746)
Experiment: Factor D esterolytic assay (Z-Lys-SBzl substrate, DTNB, 405 nm)
Format: biochemical
Settings: Z-Lys-SBzl 1.29 mM, pH 7.5, 10% DMSO, tested a minimum of three times, read-out: Measured Ki (IC50) Value for Compounds: IC50
How it was run: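 Human Factor D ([…]) with 1.29 mM Z-Lys-SBzl in 100 mM HEPES, 500 mM NaCl, pH 7.5, 10% DMSO; substrate added immediately or after room-temperature preincubation. Released thiol reacted with DTNB, rate followed at 405 nm for 600 sec, 690 nm background subtracted. IC50 from percent inhibition versus uninhibited rate, n≥3.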

Factor D, sequence (P00746 26-253): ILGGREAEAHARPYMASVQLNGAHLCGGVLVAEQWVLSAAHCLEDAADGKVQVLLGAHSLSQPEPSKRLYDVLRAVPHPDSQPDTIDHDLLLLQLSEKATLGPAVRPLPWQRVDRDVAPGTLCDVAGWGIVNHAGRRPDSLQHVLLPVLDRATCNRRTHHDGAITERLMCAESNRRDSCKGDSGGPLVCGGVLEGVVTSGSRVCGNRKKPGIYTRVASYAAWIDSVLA

IC50 [nM]	Structure (SMILES)
< 1000	NCc1cccc(-c2cc(C(=O)Nc3ccccc3CC(=O)O)cc3c2CCC3)c1 [Compound 160e, 2-(2-(7-(3-(aminomethyl)phenyl)-2,3-dihydro-1H-indene-5-carboxamido)phenyl)acetic acid]
< 1000	Cc1ccc2c(C(=O)Nc3ccccc3CC(=O)O)nc(-c3cccc(CN)c3F)nn12 [Compound 161e, 2-(2-(2-(3-(aminomethyl)-2-fluorophenyl)-7-methylpyrrolo[2,1-f][1,2,4]triazine-4-carboxamido)phenyl)acetic acid]
< 1000	Cc1ccc(OCc2cc(-c3cccc(CN)c3)c3occc3c2)c(CC(=O)O)c1 [Compound 162e, 2-(2-((7-(3-(aminomethyl)phenyl)benzofuran-5-yl)methoxy)-5-methylphenyl)acetic acid]
< 1000	NCc1cccc(-c2cc(COc3ccncc3CC(=O)O)cc3ccoc23)c1 [Compound 163d, 2-(4-((7-(3-(aminomethyl)phenyl)benzofuran-5-yl)methoxy)pyridin-3-yl)acetic acid]
< 1000	NCc1cccc(-c2cc(COc3ccccc3CC(=O)O)cc3nn(CC4CC4)cc23)c1F [Compound 164e, 2-(2-((4-(3-(aminomethyl)-2-fluorophenyl)-2-(cyclopropylmethyl)-2H-indazol-6-yl)methoxy)phenyl)acetic acid]
< 1000	Cc1cccc(CC(=O)O)c1NC(=O)c1cc(-c2cccc(CN)c2)c2occc2c1 [Compound 165f, 2-(2-(7-(3-(aminomethyl)phenyl)benzofuran-5-carboxamido)-3-methylphenyl)acetic acid]
< 1000	NCc1cccc(-c2cc(COc3ccccc3CC(=O)O)cc3nc[nH]c23)c1 [Compound 167e, 2-(2-((7-(3-(aminomethyl)phenyl)-1H-benzo[d]imidazol-5-yl)methoxy)phenyl)acetic acid]
< 1000	NCc1cc(-c2cc(COc3ccccc3CC(=O)O)nc3ccoc23)ccn1 [Compound 168c, 2-(2-((7-(2-(aminomethyl)pyridin-4-yl)furo[3,2-b]pyridin-5-yl)methoxy)phenyl)acetic acid]
< 1000	NCc1cccc(-c2cc(COc3ccccc3CC(=O)O)cc3cc(Cl)oc23)c1 [Compound 169f, 2-(2-((7-(3-(aminomethyl)phenyl)-2-chlorobenzofuran-5-yl)methoxy)phenyl)acetic acid]
< 1000	NCc1nccc(-c2cc(COc3ccccc3CC(=O)O)cc3c2ccn3CC2CC2)c1F [Compound 170b, 2-(2-((4-(2-(aminomethyl)-3-fluoropyridin-4-yl)-1-(cyclopropylmethyl)-1H-indol-6-yl)methoxy)phenyl)acetic acid]
< 1000	NCc1nccc(-c2cc(COc3ccccc3CC(=O)O)c(F)c3ccoc23)c1F [Compound 171c, 2-(2-((7-(2-(aminomethyl)-3-fluoropyridin-4-yl)-4-fluorobenzofuran-5-yl)methoxy)phenyl)acetic acid]
< 1000	NCc1cc(-c2cc(COc3ccccc3CC(=O)O)c(F)c3ccoc23)ccn1 [Compound 172b, 2-(2-((7-(2-(aminomethyl)pyridin-4-yl)-4-fluorobenzofuran-5-yl)methoxy)phenyl)acetic acid]
< 1000	NCc1cccc(-c2cc(COc3ccccc3CC(=O)O)cc3c(C(F)(F)F)coc23)c1F [Compound 173b, 2-(2-((7-(3-(aminomethyl)-2-fluorophenyl)-3-(trifluoromethyl)benzofuran-5-yl)methoxy)phenyl)acetic acid]
< 1000	NCc1nccc(-c2cc(COc3ccccc3CC(=O)O)cc3occc23)c1F [Compound 174c, 2-(2-((4-(2-(aminomethyl)-3-fluoropyridin-4-yl)benzofuran-6-yl)methoxy)phenyl)acetic acid]
< 1000	NCc1cc(-c2cc(COc3ccccc3CC(=O)O)cc3c(C(F)(F)F)coc23)ccn1 [Compound 175c, 2-(2-((7-(2-(aminomethyl)pyridin-4-yl)-3-(trifluoromethyl)benzofuran-5-yl)methoxy)phenyl)acetic acid]
1000 to 10000	Nc1n[nH]c2c(-c3cc(COc4ccccc4CC(=O)O)cc4ccoc34)cccc12 [Compound 176c, 2-(2-((7-(3-amino-1H-indazol-7-yl)benzofuran-5-yl)methoxy)phenyl)acetic acid]
< 1000	NCc1cccc(-c2cc(COc3ccccc3CC(=O)O)cc3c2CCC3)c1 [Compound 177f, 2-(2-((7-(3-(aminomethyl)phenyl)-2,3-dihydro-1H-inden-5-yl)methoxy)phenyl)acetic acid]
< 1000	NCc1cccc(-c2cc(COc3ccccc3CC(=O)O)cc3cc(CCO)oc23)c1 [Compound 178g, 2-(2-((7-(3-(aminomethyl)phenyl)-2-(2-hydroxyethyl)benzofuran-5-yl)methoxy)phenyl)acetic acid]

IC50 [nM]	Structure (SMILES)
< 1000	NCc1cccc(-c2cc(COc3ccccc3CC(=O)O)cc3cc(CCO)oc23)c1F [Compound 179b, 2-(2-((7-(3-(aminomethyl)-2-fluorophenyl)-2-(2-hydroxyethyl)benzofuran-5-yl)methoxy)phenyl)acetic acid]
< 1000	Nc1noc2c(-c3cc(COc4ccccc4CC(=O)O)cc4ccoc34)cccc12 [Compound 180e, 2-(2-((7-(3-aminobenzo[d]isoxazol-7-yl)benzofuran-5-yl)methoxy)phenyl)acetic acid]
< 1000	NCc1nccc(-c2cc(COc3ccccc3CC(=O)O)cc3c(C(F)(F)F)coc23)c1F [Compound 181d, 2-(2-((7-(2-(aminomethyl)-3-fluoropyridin-4-yl)-3-(trifluoromethyl)benzofuran-5-yl)methoxy)phenyl)acetic acid]
< 1000	NCc1cccc(-c2cc(COc3cc(Br)ccc3CC(=O)O)cc3ccoc23)c1 [Compound 182d, 2-(2-((7-(3-(aminomethyl)phenyl)benzofuran-5-yl)methoxy)-4-bromophenyl)acetic acid]
> 10000	Nc1ccc(-c2cc(COc3ccccc3CC(=O)O)cc3ccoc23)cc1 [Compound 183c, 2-(2-((7-(4-aminophenyl)benzofuran-5-yl)methoxy)phenyl)acetic acid]
1000 to 10000	Nc1cccc(-c2cc(COc3ccccc3CC(=O)O)cc3ccoc23)c1 [Compound 184c, 2-(2-((7-(3-aminophenyl)benzofuran-5-yl)methoxy)phenyl)acetic acid]
< 1000	NCc1cc(-c2cc(COc3ccccc3CC(=O)O)cc3cc(CCO)oc23)ccn1 [Compound 185c, 2-(2-((7-(2-(aminomethyl)pyridin-4-yl)-2-(2-hydroxyethyl)benzofuran-5-yl)methoxy)phenyl)acetic acid]
< 1000	CCCc1cc2cc(COc3ccccc3CC(=O)O)cc(-c3cccc(CN)c3)c2o1 [Compound 187f, 2-(2-((7-(3-(aminomethyl)phenyl)-2-propylbenzofuran-5-yl)methoxy)phenyl)acetic acid]
< 1000	CCCc1cc2cc(COc3ccccc3CC(=O)O)cc(-c3cccc(CN)c3F)c2o1 [Compound 188b, 2-(2-((7-(3-(aminomethyl)-2-fluorophenyl)-2-propylbenzofuran-5-yl)methoxy)phenyl)acetic acid]
< 1000	CCCc1cc2cc(COc3ccccc3CC(=O)O)cc(-c3ccnc(CN)c3)c2o1 [Compound 189c, 2-(2-((7-(2-(aminomethyl)pyridin-4-yl)-2-propylbenzofuran-5-yl)methoxy)phenyl)acetic acid]
< 1000	CCCc1cc2cc(COc3ccccc3CC(=O)O)cc(-c3ccnc(CN)c3F)c2o1 [Compound 190c, 2-(2-((7-(2-(aminomethyl)-3-fluoropyridin-4-yl)-2-propylbenzofuran-5-yl)methoxy)phenyl)acetic acid]
< 1000	Cc1noc2c(-c3cccc(CN)c3)cc(COc3ccccc3CC(=O)O)cc12 [Compound 191h, 2-(2-((7-(3-(aminomethyl)phenyl)-3-methylbenzo[d]isoxazol-5-yl)methoxy)phenyl)acetic acid]
< 1000	CS(=O)(=O)n1ccc2c(-c3cccc(CN)c3)cc(COc3ccccc3CC(=O)O)cc21 [Compound 192e, 2-(2-((4-(3-(aminomethyl)phenyl)-1-(methylsulfonyl)-1H-indol-6-yl)methoxy)phenyl)acetic acid]
1000 to 10000	NCc1ccc(-c2cc(COc3ccccc3CC(=O)O)cc3ccoc23)cc1 [Compound 193c, 2-(2-((7-(4-(aminomethyl)phenyl)benzofuran-5-yl)methoxy)phenyl)acetic acid]
< 1000	NCc1cccc(-c2cc(COc3ccccc3CC(=O)O)cc3cc(CNCC4CCCNC4)oc23)c1 (stereo not shown) [Compound 194d, 2-(2-((7-(3-(aminomethyl)phenyl)-2-(((piperidin-3-ylmethyl)amino)methyl)benzofuran-5-yl)methoxy)phenyl)acetic acid]
< 1000	NCCCNCc1cc2cc(COc3ccccc3CC(=O)O)cc(-c3cccc(CN)c3)c2o1 [Compound 195d, 2-(2-((7-(3-(aminomethyl)phenyl)-2-(((3-aminopropyl)amino)methyl)benzofuran-5-yl)methoxy)phenyl)acetic acid]
< 1000	NCCNCc1cc2cc(COc3ccccc3CC(=O)O)cc(-c3cccc(CN)c3)c2o1 [Compound 196d, 2-(2-((2-(((2-aminoethyl)amino)methyl)-7-(3-(aminomethyl)phenyl)benzofuran-5-yl)methoxy)phenyl)acetic acid]
< 1000	NCc1cccc(-c2cc(COc3cc(N)ccc3CC(=O)O)cc3ccoc23)c1 [Compound 197c, 2-(4-amino-2-((7-(3-(aminomethyl)phenyl)benzofuran-5-yl)methoxy)phenyl)acetic acid]

Structure (SMILES)	IC50 [nM]
NC(CF)c1cccc(-c2cc(COc3ccccc3CC(=O)O)cc3ccoc23)c1 (stereo not shown) [Compound 186c, 2-(2-((7-(3-(1-amino-2-fluoroethyl)phenyl)benzofuran-5-yl)methoxy)phenyl)acetic acid]	< 1000
